Measurements from patent US20210315960A1, “COMPOSITIONS OF AZADIRACHTA INDICA AND METHODS OF TREATING CANCER” (Board of Regents, The University of Texas System, priority 2018, published 2021).

Test system: SCC4, HSC3, Cal27 OSCC cell lines
Assay: MTT assay, human OSCC cell lines
Assay type: cell-based
Conditions: 8 h and 24 h treatments, read-out: IC50 (cell growth)
Description: SCC4 and Cal27 oral cancer cells are obtained from ATCC and maintained in DMEM supplemented with 10% fetal bovine serum and 1% penicillin/streptomycin at 37° C. with 5% CO2. For the SCC4 cells, hydrocortisone was provided at 400 ng/ml in the completed media. […] Doses to be tested will bracket the IC50s for each cell line. Control cells will receive DMSO. […] Subsequently, 10 μl of 12 mM MTT (Life Technologies; Carlsbad, Calif.) solution was added to each well, incubated for 4 hr at 37° C., and neutralized with DMSO. Absorbance was measured at 540 nm and percent viability was calculated.

Cc1ccc(-c2cc(C(F)(F)F)nn2-c2ccc(S(N)(=O)=O)cc2)cc1 [Celecoxib]
IC50: 75 µM
